Data from patent publication US10626144B2, “Peptide derivatives and uses thereof” (Nosopharm, priority 2014, dated 2020).
Numbered stars: 1 amine (or outer) side, 2 acyl side, 3 side chain; on linkers, the order of the positions; unused ones are H or OH. Square brackets hold non-standard residues; d marks the D form. Peptide text beside a SMILES is read from it. * marks the point of attachment. X3 = NC[C@H](OC(=O)C(F)(F)F)[C@H](N[*:1])C(=O)[*:2]; Phe(3,4-(OMe)2) = COc1ccc(C[C@H](N)C(=O)O)cc1OC; Phe(3-CONH2) = NC(=O)c1cccc(C[C@H](N)C(=O)O)c1; Abu(4,4,4-F3) = N[C@@H](CC(F)(F)F)C(=O)O; Phe(4-CN) = N#Cc1ccc(C[C@H](N)C(=O)O)cc1; Phe(3-F) = N[C@@H](Cc1cccc(F)c1)C(=O)O; Phe(3-Me) = Cc1cccc(C[C@H](N)C(=O)O)c1; Dab(3S-OH) = NC[C@H](O)[C@H](N)C(=O)O; Phe(2-F) = N[C@@H](Cc1ccccc1F)C(=O)O; ΔZArg = N=C(N)NCC/C=C(\N)C(=O)O; dOrn = NCCC[C@@H](N)C(=O)O; Orn = NCCC[C@H](N)C(=O)O; Nva = CCC[C@H](N)C(=O)O; NH(CH2)4NH2 = NCCCCN*

How the values were obtained:
Assay in all cases: MIC, broth microdilution (CLSI), reference strain
Settings in all cases: CAMHB
[1] = system: Staphylococcus aureus ATCC 13709
[2] = system: Pseudomonas aeruginosa ATCC 27853
[3] = system: Escherichia coli ATCC 25922
[4] = system: Acinetobacter baumannii ATCC 19606

N=C(N)NCC/C=C(\NC(=O)[C@H](CCCCN)NC(=O)[C@H](Cc1cnc[nH]1)NC(=O)[C@@H]1CCCN1C(=O)[C@@H](CCCN)NC(=O)CNC(=O)[C@H](CO)NC(=O)[C@@H](NC(=O)[C@@H](N)CCCCN)[C@@H](O)CN)C(=O)N[C@@H](CCCCN)C(=O)NCCCCN [26.1] (H-K[Dab(3S-OH)]SG[dOrn]PHK[ΔZArg]K-{NH(CH2)4NH2})
Sa: MIC Staphylococcus aureus ATCC 13709 [1]: ++ (≤8 μg/mL)
Pa: MIC Pseudomonas aeruginosa ATCC 27853 [2]: ++ (≤8 μg/mL)
Ec: MIC Escherichia coli ATCC 25922 [3]: ++ (≤8 μg/mL)
Ab: MIC Acinetobacter baumannii ATCC 19606 [4]: + (≤32 μg/mL)

N=C(N)NCC/C=C(\NC(=O)[C@H](CCCCN)NC(=O)[C@H](Cc1cnc[nH]1)NC(=O)[C@@H]1CCCN1C(=O)[C@@H](CCCN)NC(=O)CNC(=O)[C@H](CO)NC(=O)[C@@H](NC(=O)[C@@H](N)CCCCN)[C@@H](O)CN)C(=O)O [26.2] (H-K[Dab(3S-OH)]SG[dOrn]PHK[ΔZArg]-OH)
Sa: MIC Staphylococcus aureus ATCC 13709 [1]: + (≤32 μg/mL)
Pa: MIC Pseudomonas aeruginosa ATCC 27853 [2]: − (>32 μg/mL)
Ec: MIC Escherichia coli ATCC 25922 [3]: + (≤32 μg/mL)
Ab: MIC Acinetobacter baumannii ATCC 19606 [4]: − (>32 μg/mL)

CC(C)C[C@H](NC(=O)[C@@H](NC(=O)[C@@H](N)CCCCN)[C@@H](O)CN)C(=O)NCC(=O)N[C@H](CCCN)C(=O)N1CCC[C@H]1C(=O)N[C@@H](Cc1cnc[nH]1)C(=O)N[C@@H](CCCCN)C(=O)N/C(=C\CCNC(=N)N)C(=O)N[C@@H](CCCCN)C(=O)NCCCCN [29.1] (H-K[Dab(3S-OH)]LG[dOrn]PHK[ΔZArg]K-{NH(CH2)4NH2})
Sa: MIC Staphylococcus aureus ATCC 13709 [1]: + (≤32 μg/mL)
Pa: MIC Pseudomonas aeruginosa ATCC 27853 [2]: − (>32 μg/mL)
Ec: MIC Escherichia coli ATCC 25922 [3]: − (>32 μg/mL)
Ab: MIC Acinetobacter baumannii ATCC 19606 [4]: − (>32 μg/mL)

N=C(N)NCC/C=C(\NC(=O)[C@H](CCCCN)NC(=O)[C@H](Cc1cnc[nH]1)NC(=O)[C@@H]1CCCN1C(=O)[C@@H](CCCN)NC(=O)CNC(=O)[C@@H](NC(=O)[C@@H](NC(=O)[C@@H](N)CCCCN)[C@H](CN)OC(=O)C(F)(F)F)[C@@H](O)CN)C(=O)N[C@@H](CCCCN)C(=O)NCCCCN [32.1] (H-K[X3][Dab(3S-OH)]G[dOrn]PHK[ΔZArg]K-{NH(CH2)4NH2})
Sa: MIC Staphylococcus aureus ATCC 13709 [1]: ++ (≤8 μg/mL)
Pa: MIC Pseudomonas aeruginosa ATCC 27853 [2]: − (>32 μg/mL)
Ec: MIC Escherichia coli ATCC 25922 [3]: + (≤32 μg/mL)
Ab: MIC Acinetobacter baumannii ATCC 19606 [4]: − (>32 μg/mL)

CCC[C@H](NC(=O)[C@@H](NC(=O)[C@@H](N)CCCCN)[C@@H](O)CN)C(=O)NCC(=O)N[C@H](CCCN)C(=O)N1CCC[C@H]1C(=O)N[C@@H](Cc1cnc[nH]1)C(=O)N[C@@H](CCCCN)C(=O)N/C(=C\CCNC(=N)N)C(=O)N[C@@H](CCCCN)C(=O)NCCCCN [210.1] (H-K[Dab(3S-OH)][Nva]G[dOrn]PHK[ΔZArg]K-{NH(CH2)4NH2})
Sa: MIC Staphylococcus aureus ATCC 13709 [1]: ++ (≤8 μg/mL)
Pa: MIC Pseudomonas aeruginosa ATCC 27853 [2]: − (>32 μg/mL)
Ec: MIC Escherichia coli ATCC 25922 [3]: − (>32 μg/mL)
Ab: MIC Acinetobacter baumannii ATCC 19606 [4]: − (>32 μg/mL)

N=C(N)NCC/C=C(\NC(=O)[C@H](CCCCN)NC(=O)[C@H](Cc1cnc[nH]1)NC(=O)[C@@H]1CCCN1C(=O)[C@@H](CCCN)NC(=O)CNC(=O)[C@H](CCCN)NC(=O)[C@@H](NC(=O)[C@@H](N)CCCCN)[C@@H](O)CN)C(=O)N[C@@H](CCCCN)C(=O)NCCCCN [211.1] (H-K[Dab(3S-OH)][Orn]G[dOrn]PHK[ΔZArg]K-{NH(CH2)4NH2})
Sa: MIC Staphylococcus aureus ATCC 13709 [1]: ++ (≤8 μg/mL)
Pa: MIC Pseudomonas aeruginosa ATCC 27853 [2]: ++ (≤8 μg/mL)
Ec: MIC Escherichia coli ATCC 25922 [3]: ++ (≤8 μg/mL)
Ab: MIC Acinetobacter baumannii ATCC 19606 [4]: + (≤32 μg/mL)

N=C(N)NCC/C=C(\NC(=O)[C@H](CCCCN)NC(=O)[C@H](Cc1cnc[nH]1)NC(=O)[C@@H]1CCCN1C(=O)[C@@H](CCCN)NC(=O)CNC(=O)[C@H](CCCN)NC(=O)[C@@H](NC(=O)[C@@H](N)CCCCN)[C@@H](O)CN)C(=O)O [211.2] (H-K[Dab(3S-OH)][Orn]G[dOrn]PHK[ΔZArg]-OH)
Sa: MIC Staphylococcus aureus ATCC 13709 [1]: ++ (≤8 μg/mL)
Pa: MIC Pseudomonas aeruginosa ATCC 27853 [2]: − (>32 μg/mL)
Ec: MIC Escherichia coli ATCC 25922 [3]: + (≤32 μg/mL)
Ab: MIC Acinetobacter baumannii ATCC 19606 [4]: − (>32 μg/mL)

N=C(N)NCC/C=C(\NC(=O)[C@H](CCCCN)NC(=O)[C@H](Cc1cccc(C(N)=O)c1)NC(=O)[C@@H]1CCCN1C(=O)[C@@H](CCCN)NC(=O)CNC(=O)[C@H](CCCN)NC(=O)[C@@H](NC(=O)[C@@H](N)CCCCN)[C@@H](O)CN)C(=O)O [211.3] (H-K[Dab(3S-OH)][Orn]G[dOrn]P[Phe(3-CONH2)]K[ΔZArg]-OH)
Sa: MIC Staphylococcus aureus ATCC 13709 [1]: ++ (≤8 μg/mL)
Pa: MIC Pseudomonas aeruginosa ATCC 27853 [2]: − (>32 μg/mL)
Ec: MIC Escherichia coli ATCC 25922 [3]: ++ (≤8 μg/mL)
Ab: MIC Acinetobacter baumannii ATCC 19606 [4]: − (>32 μg/mL)

N=C(N)NCC/C=C(\NC(=O)[C@H](CCCCN)NC(=O)[C@H](Cc1cccc(F)c1)NC(=O)[C@@H]1CCCN1C(=O)[C@@H](CCCN)NC(=O)CNC(=O)[C@H](CCCN)NC(=O)[C@@H](NC(=O)[C@@H](N)CCCCN)[C@@H](O)CN)C(=O)O [211.4] (H-K[Dab(3S-OH)][Orn]G[dOrn]P[Phe(3-F)]K[ΔZArg]-OH)
Sa: MIC Staphylococcus aureus ATCC 13709 [1]: ++ (≤8 μg/mL)
Pa: MIC Pseudomonas aeruginosa ATCC 27853 [2]: − (>32 μg/mL)
Ec: MIC Escherichia coli ATCC 25922 [3]: ++ (≤8 μg/mL)
Ab: MIC Acinetobacter baumannii ATCC 19606 [4]: − (>32 μg/mL)

Cc1cccc(C[C@H](NC(=O)[C@@H]2CCCN2C(=O)[C@@H](CCCN)NC(=O)CNC(=O)[C@H](CCCN)NC(=O)[C@@H](NC(=O)[C@@H](N)CCCCN)[C@@H](O)CN)C(=O)N[C@@H](CCCCN)C(=O)N/C(=C\CCNC(=N)N)C(=O)O)c1 [211.5] (H-K[Dab(3S-OH)][Orn]G[dOrn]P[Phe(3-Me)]K[ΔZArg]-OH)
Sa: MIC Staphylococcus aureus ATCC 13709 [1]: ++ (≤8 μg/mL)
Pa: MIC Pseudomonas aeruginosa ATCC 27853 [2]: − (>32 μg/mL)
Ec: MIC Escherichia coli ATCC 25922 [3]: ++ (≤8 μg/mL)
Ab: MIC Acinetobacter baumannii ATCC 19606 [4]: − (>32 μg/mL)

N#Cc1ccc(C[C@H](NC(=O)[C@@H]2CCCN2C(=O)[C@@H](CCCN)NC(=O)CNC(=O)[C@H](CCCN)NC(=O)[C@@H](NC(=O)[C@@H](N)CCCCN)[C@@H](O)CN)C(=O)N[C@@H](CCCCN)C(=O)N/C(=C\CCNC(=N)N)C(=O)O)cc1 [211.6] (H-K[Dab(3S-OH)][Orn]G[dOrn]P[Phe(4-CN)]K[ΔZArg]-OH)
Sa: MIC Staphylococcus aureus ATCC 13709 [1]: ++ (≤8 μg/mL)
Pa: MIC Pseudomonas aeruginosa ATCC 27853 [2]: − (>32 μg/mL)
Ec: MIC Escherichia coli ATCC 25922 [3]: ++ (≤8 μg/mL)
Ab: MIC Acinetobacter baumannii ATCC 19606 [4]: − (>32 μg/mL)

COc1ccc(C[C@H](NC(=O)[C@@H]2CCCN2C(=O)[C@@H](CCCN)NC(=O)CNC(=O)[C@H](CCCN)NC(=O)[C@@H](NC(=O)[C@@H](N)CCCCN)[C@@H](O)CN)C(=O)N[C@@H](CCCCN)C(=O)N/C(=C\CCNC(=N)N)C(=O)O)cc1 [211.7] (H-K[Dab(3S-OH)][Orn]G[dOrn]PY(Me)K[ΔZArg]-OH)
Sa: MIC Staphylococcus aureus ATCC 13709 [1]: ++ (≤8 μg/mL)
Pa: MIC Pseudomonas aeruginosa ATCC 27853 [2]: − (>32 μg/mL)
Ec: MIC Escherichia coli ATCC 25922 [3]: ++ (≤8 μg/mL)
Ab: MIC Acinetobacter baumannii ATCC 19606 [4]: − (>32 μg/mL)

N=C(N)NCC/C=C(\NC(=O)[C@H](CCCCN)NC(=O)[C@H](CC(F)(F)F)NC(=O)[C@@H]1CCCN1C(=O)[C@@H](CCCN)NC(=O)CNC(=O)[C@H](CCCN)NC(=O)[C@@H](NC(=O)[C@@H](N)CCCCN)[C@@H](O)CN)C(=O)O [211.8] (H-K[Dab(3S-OH)][Orn]G[dOrn]P[Abu(4,4,4-F3)]K[ΔZArg]-OH)
Sa: MIC Staphylococcus aureus ATCC 13709 [1]: ++ (≤8 μg/mL)
Pa: MIC Pseudomonas aeruginosa ATCC 27853 [2]: − (>32 μg/mL)
Ec: MIC Escherichia coli ATCC 25922 [3]: ++ (≤8 μg/mL)
Ab: MIC Acinetobacter baumannii ATCC 19606 [4]: − (>32 μg/mL)

N=C(N)NCC/C=C(\NC(=O)[C@H](CCCCN)NC(=O)[C@H](Cc1ccccc1F)NC(=O)[C@@H]1CCCN1C(=O)[C@@H](CCCN)NC(=O)CNC(=O)[C@H](CCCN)NC(=O)[C@@H](NC(=O)[C@@H](N)CCCCN)[C@@H](O)CN)C(=O)O [211.9] (H-K[Dab(3S-OH)][Orn]G[dOrn]P[Phe(2-F)]K[ΔZArg]-OH)
Sa: MIC Staphylococcus aureus ATCC 13709 [1]: ++ (≤8 μg/mL)
Pa: MIC Pseudomonas aeruginosa ATCC 27853 [2]: − (>32 μg/mL)
Ec: MIC Escherichia coli ATCC 25922 [3]: ++ (≤8 μg/mL)
Ab: MIC Acinetobacter baumannii ATCC 19606 [4]: − (>32 μg/mL)

COc1ccc(C[C@H](NC(=O)[C@@H]2CCCN2C(=O)[C@@H](CCCN)NC(=O)CNC(=O)[C@H](CCCN)NC(=O)[C@@H](NC(=O)[C@@H](N)CCCCN)[C@@H](O)CN)C(=O)N[C@@H](CCCCN)C(=O)N/C(=C\CCNC(=N)N)C(=O)O)cc1OC [211.10] (H-K[Dab(3S-OH)][Orn]G[dOrn]P[Phe(3,4-(OMe)2)]K[ΔZArg]-OH)
Sa: MIC Staphylococcus aureus ATCC 13709 [1]: ++ (≤8 μg/mL)
Pa: MIC Pseudomonas aeruginosa ATCC 27853 [2]: − (>32 μg/mL)
Ec: MIC Escherichia coli ATCC 25922 [3]: ++ (≤8 μg/mL)
Ab: MIC Acinetobacter baumannii ATCC 19606 [4]: − (>32 μg/mL)

N=C(N)NCC/C=C(\NC(=O)[C@H](CCCCN)NC(=O)[C@H](Cc1c[nH]c2ccccc12)NC(=O)[C@@H]1CCCN1C(=O)[C@@H](CCCN)NC(=O)CNC(=O)[C@H](CCCN)NC(=O)[C@@H](NC(=O)[C@@H](N)CCCCN)[C@@H](O)CN)C(=O)O [211.11] (H-K[Dab(3S-OH)][Orn]G[dOrn]PWK[ΔZArg]-OH)
Sa: MIC Staphylococcus aureus ATCC 13709 [1]: ++ (≤8 μg/mL)
Pa: MIC Pseudomonas aeruginosa ATCC 27853 [2]: − (>32 μg/mL)
Ec: MIC Escherichia coli ATCC 25922 [3]: ++ (≤8 μg/mL)
Ab: MIC Acinetobacter baumannii ATCC 19606 [4]: − (>32 μg/mL)
